Measurements published in US6555062B1, “Reagent container for an automated analyzer” (Bayer Corporation, priority 1991, dated 2003).
Values joined by “and” are separate entries in the source; they are usually repeats but may differ in a detail not shown here. Identical values can stand only once.

What was measured:
[1] = system: T4 antiserum covalently coupled to the solid phase; assay: Free thyroxine (FT4) competitive chemiluminescent immunoassay, specificity (% cross-reactivity); format: binding; conditions: FT4 assay, anti-T4 paramagnetic particles, 7.5 minutes at 37° C.
Description: A free thyroxine (FT4) assay has been developed for the above described automated analyzer. The FT4 assay is a competitive binding assay in which FT4 in a test sample competes with labeled T4 (tracer reagent) for a limited amount of T4 antiserum covalently coupled to the solid phase. In the preferred format of this assay acridinium ester is the label and paramagnetic particles serve as the solid phase. A test sample (25 uL.) acridinium ester labeled T4 (100 uL.) and anti-T4 paramagnetic particles (450 uL.) are dispensed by the analyzer into a cuvette and incubated for 7.5 minutes at 37° C. After incubation, magnetic separation and washes are performed as described prior to detection of the chemiluminescent signal. The amount of FT4 present in the test sample is determined by the level of the signed detected and is converted to a dose by a two-point data reduction algorithm.

[2] = system: prostate specific antigen (PSA) assay; assay: PSA chemiluminescent immunoassay, interfering substances (endogenous compounds, chemotherapeutic agents); conditions: mean over three PSA levels
Description: A prostate specific antigen (PSA) assay has been developed for the above described automated analyzer. The PSA assay utilizes an anti-PSA antibody solid phase and a labeled anti-PSA antibody as a tracer reagent. […] A test sample (100 uL.), tracer reagent (50 uL.) and solid phase reagent (250 uL.) are dispersed into a cuvette by the analyzer and incubated for 7.5 minutes at 37° C. After the incubation, magnetic separation and washes are performed as described above prior to detection of the chemiluminescent signal.
All data presented was generated based on a two-point calibration off a standard curve consisting of eight points.

[3] = system: monoclonal anti-digoxin antibody; assay: Digoxin chemiluminescent immunoassay, specificity (cross-reactivity, effect on dose); format: binding; conditions: digoxin assay
Description: (§1) A digoxin assay has been developed for the above described automated analyzer. The digoxin assay architecture is a hapten solid phase with a labeled antibody (tracer reagent). In the preferred format of this assay, the tracer reagent is an acridinium ester labeled monoclonal anti-digoxin antibody; and the solid phase is paramagnetic particles to which digoxin-apoferritin has been immobilized. A test sample (150 uL.) and tracer reagent (50 uL.) are dispensed into a cuvette by the analyzer and incubated for 2.5 minutes at 37° C. The solid phase reagent (250 uL.) is then added to the cuvette followed by an additional incubation of 5.0 minutes. After the second incubation, magnetic separation and washes are performed as described above prior to detection of the chemiluminescent signal.
(§2) All data presented was generated based upon a two-point recalibration off an original master curve. The master curve was generated using eight standards with values ranging from zero to 6 ng/mL digoxin.
The test assay has a sensitivity of less than 0.1 ng/mL (minimum detectable dose defined as the 95% confidence limit at 0 ng/mL.) with a range of 0-5 ng/mL. The correlation of the automated test assay with a manual test assay (Magic^R Digoxin, Ciba Corning Diagnostics, Corp.) provided a slope of 1.00, an intercept of 0.08 and a correlation coefficient of 0.97 (N=130).

[4] = system: human chorionic gonadotropin (hCG) assay; assay: hCG sandwich immunoassay, interfering substances (NCCLS protocols); conditions: bilirubin 20, lipid 1,000, hemolysate 500 mg/dL
Description: A human chorionic gonadotropin (hCG) assay has been developed for the above described automated analyzer. […] A test sample (50 uL.) and tracer reagent (100 uL.) are dispensed into a cuvette by the analyzer and incubated for 5.0 minutes at 37° C. The capture solid phase reagent (450 uL.) is then added to the cuvette followed by an additional incubation of 2.5 minutes. After the second incubation, magnetic separation and washes are performed as described above prior to detection of the chemiluminescent signal.
All data presented was generated based on a two-point calibration off a full standard master curve, consisting of ten standards. The standards, ranging from zero to 1000 mIU/mL., are calibrated against the WHO 1st 75/537 reference material.

[5] = Digoxin immunoassay, interfering substances (NCCLS protocols); conditions: bilirubin 20, lipid 1,000, hemolysate 500 mg/dL
Description: as §1, with “In the preferred format of this assay, the tracer reagent is an acridinium ester labeled monoclonal anti-digoxin antibody; and the solid phase is paramagnetic particles to which digoxin-apoferritin has been immobilized.” left out
as §2

N[C@@H](Cc1cc(I)c(Oc2ccc(O)cc2)c(I)c1)C(=O)O [3,5-diiodo-L-thyronine]
% Cross-Reactivity [1]: <0.002%

O=P1(N(CCCl)CCCl)NCCCO1 (centres unmarked) [Cyclophosphamide]
Spiked vs. Control, Mean +/− SD ([2]; chemotherapeutic agents): 98 +/− 3%

N[C@H](Cc1cc(I)c(Oc2cc(I)c(O)c(I)c2)c(I)c1)C(=O)O [D-thyroxine]
% Cross-Reactivity [1]: >64%

N[C@H](Cc1cc(I)c(Oc2ccc(O)c(I)c2)c(I)c1)C(=O)O [D-triiodothyronine]
% Cross-Reactivity [1]: 3.6%

C[C@H]1O[C@@H](O[C@H]2CC[C@@]3(C)[C@H](CC[C@@H]4[C@@H]3C[C@@H](O)[C@]3(C)[C@@H](C5=CC(=O)OC5)CC[C@]43O)C2)C[C@H](O)[C@@H]1O[C@H]1C[C@H](O)[C@H](O[C@H]2C[C@H](O)[C@H](O[C@@H]3O[C@H](CO)[C@@H](O)[C@H](O)[C@H]3O)[C@@H](C)O2)[C@@H](C)O1 [Deslanoside]
% Cross-Reactivity [3]: 94.6%

CC/C(=C(/CC)c1ccc(O)cc1)c1ccc(O)cc1 [Diethyl-Stilbesterol]
Spiked vs. Control, Mean +/− SD ([2]; chemotherapeutic agents): 101 +/− 5%

C[C@H]1O[C@@H](O[C@H]2[C@@H](O)C[C@H](O[C@H]3[C@@H](O)C[C@H](O[C@H]4CC[C@@]5(C)[C@H](CC[C@@H]6[C@@H]5CC[C@]5(C)[C@@H](C7=CC(=O)OC7)CC[C@]65O)C4)O[C@@H]3C)O[C@@H]2C)C[C@H](O)[C@@H]1O [Digitoxin]
% Cross-Reactivity [3]: 0.6%

N[C@@H](Cc1cc(I)c(O)c(I)c1)C(=O)O [Diiodotyrosine]
% Cross-Reactivity [1]: <0.002%

COc1cccc2c1C(=O)c1c(O)c3c(c(O)c1C2=O)C[C@@](O)(C(=O)CO)C[C@@H]3O[C@H]1C[C@H](N)[C@H](O)[C@H](C)O1 [Doxorubicin]
Spiked vs. Control, Mean +/− SD ([2]; chemotherapeutic agents): 100 +/− 3%

N[C@@H](Cc1cc(I)c(Oc2ccc(O)c(I)c2)c(I)c1)C(=O)O [L-triiodothyronine]
% Cross-Reactivity [1]: 3.9%

CC(=O)O[C@H]1C[C@H](O[C@H]2[C@@H](O)C[C@H](O[C@H]3[C@@H](O)C[C@H](O[C@H]4CC[C@@]5(C)[C@H](CC[C@@H]6[C@@H]5C[C@@H](O)[C@]5(C)[C@@H](C7=CC(=O)OC7)CC[C@]65O)C4)O[C@@H]3C)O[C@@H]2C)O[C@H](C)[C@H]1O[C@@H]1O[C@H](CO)[C@@H](O)[C@H](O)[C@H]1O [Lanatoside C]
% Cross-Reactivity [3]: 87.1%

CC(=O)O[C@]1(C(C)=O)CC[C@H]2[C@@H]3C=C(C)C4=CC(=O)CC[C@]4(C)[C@H]3CC[C@@]21C [Megestrol Acetate]
Spiked vs. Control, Mean +/− SD ([2]; chemotherapeutic agents): 101 +/− 5%

N[C@@H](Cc1ccc(O)c(I)c1)C(=O)O [Monoiodotyrosine]
% Cross-Reactivity [1]: <0.002%

C[C@@H]1O[C@@H](O[C@H]2C[C@@H](O)[C@]3(CO)[C@H]4[C@H](O)C[C@]5(C)[C@@H](C6=CC(=O)OC6)CC[C@]5(O)[C@@H]4CC[C@]3(O)C2)[C@H](O)[C@H](O)[C@H]1O [Ouabain]
% Cross-Reactivity [3]: 7.3%

NC(Cc1ccc(Oc2cc(I)c(O)c(I)c2)c(I)c1)C(=O)O (centres unmarked) [Reverse triiodothyronine]
% Cross-Reactivity [1]: 3.1%

C=CC1=C(C)/C(=C/c2[nH]c(Cc3[nH]c(/C=C4\NC(=O)C(C)=C4C=C)c(C)c3CCC(=O)O)c(CCC(=O)O)c2C)NC1=O [Unconjug. Bilirubin]
Spiked vs. Control [4]: 106% and 98% and 103% | Spiked vs. Control [5]: 105% and 99% | Spiked vs. Control, Mean +/− SD ([2]; endogenous interferents): 103 +/− 6%

CO[C@H]1[C@@H](O)C[C@H](O[C@H]2[C@@H](O)C[C@H](O[C@H]3[C@@H](O)C[C@H](O[C@H]4CC[C@@]5(C)[C@H](CC[C@@H]6[C@@H]5C[C@@H](O)[C@]5(C)[C@@H](C7=CC(=O)OC7)CC[C@]65O)C4)O[C@@H]3C)O[C@@H]2C)O[C@@H]1C [β-Methyldigoxin]
% Cross-Reactivity [3]: 109.4%

Conjugated Bilirubin
Spiked vs. Control [4]: 102% | Spiked vs. Control [5]: 106% and 99% | Spiked vs. Control, Mean +/− SD ([2]; endogenous interferents): 101 +/− 9%

Hemoglobin: endogenous interferent spiked into patient samples at 500 mg/dL
Spiked vs. Control, Mean +/− SD ([2]; endogenous interferents): 99 +/− 4%
